Assay results published in patent US7939541B2, “Intermediates and a process employing the intermediates for the preparation of (3-trifluoromethylsulfonyl)-N-[4-methyl-3-(4-pyridin-3yl-pyrimidin-2ylamino)-phenyl]-benzamide” (Natco Pharma Limited, priority 2004, dated 2011).

Key:
[1] = tested on: Baf3 murine leukemia cells Wt; assay: Blast cell count in nude mice implanted with Baf3 Wt cells; format: in vivo; details: Baf3Wt; Imatinib 10 mg/kg, AN019 20 mg/kg, AN024 20 mg/kg, oral gavage or ip from day 15; day 42
Excerpt: (§1) Blood smears were obtained via the tail vein or via the femoral vein every 6th day and blast cells counted and graphically represented.
(§2) Abdominal swelling and decrease in activity was monitored daily, blood smear taken via the tail vein or the femoral vein every 6th day and H&E stained as per standard protocols. 42 days after implantation, mice were sacrificed and spleens harvested.
(§3) Blood from tail vein or the femoral vein was taken every 6th day from Baf3 cell implanted mice until day 42.
(§4) Nude mice were intraperitoneally implanted with Baf3 mutant cells (wt, T315I, M351T or E255K). […] Blood was drawn from the femoral vein or tail vein every 6th day and blast cell count determined and graphically represented.

[2] = tested on: Baf3 murine leukemia cells T315I; assay: Blast cell count in nude mice implanted with Baf3 T315I cells; format: in vivo; details: Baf3T315I; Imatinib 10 mg/kg, AN019 20 mg/kg, AN024 20 mg/kg, oral gavage or ip from day 15; day 42
Excerpt: as §1, §2, §3, §4

[3] = tested on: Baf3 murine leukemia cells M351T; assay: Blast cell count in nude mice implanted with Baf3 M351T cells; format: in vivo; details: Baf3M351T; Imatinib 10 mg/kg, AN019 20 mg/kg, AN024 20 mg/kg, oral gavage or ip from day 15; day 42
Excerpt: as §1, §2, §3, §4

[4] = tested on: Baf3 murine leukemia cells E255K; assay: Blast cell count in nude mice implanted with Baf3 E255K cells; format: in vivo; details: Baf3E255K (printed E225K); Imatinib 10 mg/kg, AN019 20 mg/kg, AN024 20 mg/kg, oral gavage or ip from day 15; day 42
Excerpt: as §1, §2, §3, §4

K562luc cells = assay: Determination of drug temporal penetrance (Tp); format: in vivo, nude mice; details: daily ip from day 15 to day 35, imaged till day 45; AN019 20 mg/kg, AN024 20 mg/kg, Imatinib 10 mg/kg
Procedure: The temporal penetrance was calculated applying the following equation, […].
P=photon counts at day ‘a’, day ‘ter’, or day ‘b’ where ‘a’ is the day when drug treatment was stopped and ‘ter’ is the day when the experiment was terminated and ‘b’ is the day where P is minimum after day a but before day ‘ter’.
n=number of animals alive when P was measured.
The animals were imaged at 6 day intervals post transplantation. […] Drug treatment was stopped on day 35 and animals were imaged till day 45, and calculated as described in methods.

ZR71 breast cancer cells = assay: In vitro angiogenic assay, ZR-71 conditioned media on human dermal endothelial cells; format: cell-based; details: ZR-71 cells, radiation status not specified
Procedure: (§5) The in vitro angiogenesis of 4910, 5310 and U87 glioma cells and MDAMB231 and ZR71 breast cancer cells in the presence of specified concentrations of compounds were determined as follows, cells (2×10^4/well) were seeded in 8-well chamber slides and were treated with various concentrations of test compounds. After a 24 h incubation period, the conditioned media was removed and added to a 4×10^4 human dermal endothelial cell (monolayer in 8-well chamber slides) and the human dermal endothelial cells were allowed to grow for 72 h. Cells were then fixed in 3.7% formaldehyde and stained with H&E and photographed.

[5] = tested on: MDAMB231 breast cancer cells; assay: In vitro angiogenic assay, MDA-MB-231 conditioned media on human dermal endothelial cells; format: cell-based; details: MDA-MB-231 cells
Procedure: as §5

4910 glioma cells = assay: In vitro angiogenic assay, 4910 conditioned media on human dermal endothelial cells; format: cell-based; details: 4910 cells
Procedure: as §5

[6] = tested on: AKT, ERK and Pi3k in ZR71 breast cancer cells; assay: Western blot analysis, ZR71; format: cell-based; details: 24 h
Procedure: (§6) Western blot analysis of 4910, 5310 and U87 glioma cells and MDAMB231 and ZR71 breast cancer cells in the presence of specified concentrations of compounds were assessed as per standard protocols. Cells were treated with AN019, AN024 or Temozolomide at the specified concentrations. 24 h after treatment, cells were collected and cell lysates extracted. Equal quantities of proteins were fractionated by SDS-PAGE. The fractionated proteins were blotted on to nylon membranes and immunoprobed for AKT, ERK and Pi3k. Breast cancer cell protein isolates were additionally immunoprobed for EGFR, ErbB1, ErbB2 and ErbB3.

[7] = tested on: AKT, ERK and Pi3k in 5310 glioma cells; assay: Western blot analysis, 5310; format: cell-based; details: for PI3k levels: 24 h
Procedure: as §6

[8] = tested on: pAKT and pERK in glioma and breast cancer cells; assay: Western blot analysis of pAKT and pERK, cell line not stated; format: cell-based; details: for pERK levels: both with and without radiation
Procedure: as §6

[9] = tested on: K562 luciferase expressing cells; assay: Leukemic survival study; format: in vivo, nude mice
Excerpt: K562 luciferase expressing cells were implanted intraperitoneally into nude mice; the mice were scanned using the xenogeny IVIS image station after ip injections of luciferin does determine implantations. Drug treatment was started as in previous studies day 15 after implantation. The animals were given treatment till day 42, after which drug treatment was stopped and survival of the animals determined as per the animal care regulations. […] Drug treatment was withdrawn on day 42 post implantation and survival of animals determined.

K562 = assay: ED50 and therapeutic index in leukemic mice (K562); format: in vivo; details: po, mice
[10] = tested on: 4910 human glioma xenograft cells; assay: Glioma radiation studies, intracranial tumours; format: in vivo, nude mice
Procedure: Nude mice were intracranially implanted with 4910 human glioma xenograft cells (1×10^6 cells) intracranially. Ten days after implantation mice were treated with AN019, AN024 or temozolomide with or without radiation (5 Gy/week). The experiment was terminated at day 40 post implantation.

5310 glioma cells = assay: In vitro angiogenic assay, 5310 conditioned media on human dermal endothelial cells; format: cell-based; details: 5310 cells
Procedure: as §5

In the case of `Cc1ccc(NC(=O)c2cc(C(F)(F)F)cc(C(F)(F)F)c2)cc1Nc1nccc(-c2cccnc2)n1` [AN019], the “blast cell count in blood smears” value [1] is reported as “complete regression of leukemic blast cells”, the “blast cell count in blood smears” value [2] is reported as “significant decrease in blast cell count” and the “blast cell count in blood smears” value [3] is reported as “significant decrease in blast cell count”. The “blast cell count in blood smears” value [4] was “significant decrease in blast cell count”, the “temporal penetrance (Tp)” value (K562luc cells) was 2.0 and the inhibition of angiogenesis (ZR71 breast cancer cells) was “complete inhibition of angiogenesis”. The inhibition of angiogenesis ([5]; with radiation) was “slight inhibition”, the inhibition of angiogenesis (4910 glioma cells; with radiation) was “increase in angiogenic inhibition after radiation” and the AKT levels ([6]; ZR71, after radiation) was “enhanced after radiation”. For the same compound, the PI3k levels ([6]; ZR71, with radiation) was “absent”, the AKT levels ([6]; ZR71, without radiation) was “decrease in AKT levels” and the PI3k levels ([6]; ZR71, without radiation) was “absent”. For the same compound, the AKT expression levels ([7]; 5310, 24 h) was “decrease in AKT expression levels”, the PI3k levels ([7]; 5310, after radiation treatment) was “reappeared after radiation treatment” and the PI3k levels ([7]; 5310, without radiation) was “almost undetectable”. For the same compound, the pERK levels [8] was “reduced significantly”, the “blast cell count from blood smears after withdrawal of drug treatment” value ([9]; drug treatment withdrawn on day 42 (FIG. 6C)) was “showed effectiveness after withdrawal of drug treatment” and the “animals showing no signs of leukemia / complete absence of leukemic symptoms” value ([9]; of 10 animals, treatment day 15 to day 42, then withdrawn, AN024 read on day 55) was 7 animals. The “mortality (day post implantation)” value ([9]; treatment day 15 to day 42, then withdrawn) was “did not show any mortality”, the “ED50 (po) Mice” value (K562) was 11.5 mg/kg and the “intracranial tumours (size, appearance)” value ([10]; without radiation) was “tumours similar to AN024 treated animals”. The “MTD Mice” value (Maximum Tolerated Dose) was 500 mg/kg and the “LD50 (po) Mice” value (po) was 1133 mg/kg.
With `Cn1nnc2c(C(N)=O)ncn2c1=O` [Temozolomide, reference compound] the inhibition of angiogenesis (ZR71 breast cancer cells) was “complete inhibition of angiogenesis”, the inhibition of angiogenesis ([5]; control condition (without radiation)) was “only a slight inhibition” and the inhibition of angiogenesis ([5]; with radiation) was “increase in inhibition after radiation”. The inhibition of angiogenesis (4910 glioma cells; with radiation) was “significant inhibition of angiogenesis”, the inhibition of angiogenesis (4910 glioma cells; without radiation) was “significant inhibition of angiogenesis” and the inhibition of angiogenesis (5310 glioma cells; after radiation treatment) was “angiogenesis was promoted”. The inhibition of angiogenesis (5310 glioma cells; control conditions (without radiation)) was “inhibition of angiogenesis was seen”, the pERK levels [8] was “did not show any significant change” and the pAKT levels ([8]; with or without radiation) was “did not show any significant change”. The “intracranial tumours (size, appearance)” value ([10]; with radiation (5 Gy/week)) was “further regression in tumor size” and the “intracranial tumours (size, appearance)” value ([10]; without radiation) was “reduction in intracranial tumours”.
